PubChem BioAssay (NCI)
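How tested: cells in 96-well plates exposed to compound for 48 hours at five concentrations. TGI denotes the concentration required for complete inhibition of growth.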

Key:
Assay in all cases: NCI anticancer screen, dose series, 48 h
SN12C renal = system: SN12C renal
HCC-2998 colon = system: HCC-2998 colon
MDA-N = system: MDA-N
SF-268 CNS = system: SF-268 CNS
UACC-62 melanoma = system: UACC-62 melanoma
OVCAR-8 ovarian = system: OVCAR-8 ovarian
HCT-15 colon = system: HCT-15 colon
TK-10 renal = system: TK-10 renal
NCI-H460 lung = system: NCI-H460 lung
T-47D breast = system: T-47D breast
UO-31 renal = system: UO-31 renal
786-0 renal = system: 786-0 renal
SF-295 CNS = system: SF-295 CNS
A498 renal = system: A498 renal
MDA-MB-435 = system: MDA-MB-435
ACHN renal = system: ACHN renal
SF-539 CNS = system: SF-539 CNS
CCRF-CEM leukemia = system: CCRF-CEM leukemia
MCF7 breast = system: MCF7 breast
HL-60(TB) leukemia = system: HL-60(TB) leukemia
SK-MEL-28 melanoma = system: SK-MEL-28 melanoma
EKVX NSCLC = system: EKVX NSCLC
U251 CNS = system: U251 CNS
NCI-H23 lung = system: NCI-H23 lung
COLO 205 colon = system: COLO 205 colon
A549 NSCLC = system: A549 NSCLC
SNB-75 CNS = system: SNB-75 CNS
HOP-62 NSCLC = system: HOP-62 NSCLC
MOLT-4 leukemia = system: MOLT-4 leukemia
SR leukemia = system: SR leukemia
NCI-H226 lung = system: NCI-H226 lung
RXF 393 renal = system: RXF 393 renal
SNB-19 CNS = system: SNB-19 CNS
HOP-92 NSCLC = system: HOP-92 NSCLC
SW-620 colon = system: SW-620 colon
HCT-116 colon = system: HCT-116 colon
OVCAR-3 ovarian = system: OVCAR-3 ovarian
OVCAR-4 ovarian = system: OVCAR-4 ovarian
PC-3 prostate = system: PC-3 prostate
SK-OV-3 ovarian = system: SK-OV-3 ovarian
K-562 leukemia = system: K-562 leukemia
KM12 colon = system: KM12 colon
IGROV1 ovarian = system: IGROV1 ovarian
NCI/ADR-RES ovarian = system: NCI/ADR-RES ovarian
HT29 colon = system: HT29 colon
RPMI-8226 leukemia = system: RPMI-8226 leukemia
SK-MEL-2 melanoma = system: SK-MEL-2 melanoma
HS 578T breast = system: HS 578T breast
MALME-3M melanoma = system: MALME-3M melanoma
SK-MEL-5 melanoma = system: SK-MEL-5 melanoma
LOX IMVI melanoma = system: LOX IMVI melanoma
M14 melanoma = system: M14 melanoma
MDA-MB-231 breast = system: MDA-MB-231 breast
CAKI-1 renal = system: CAKI-1 renal
DU-145 prostate = system: DU-145 prostate
UACC-257 melanoma = system: UACC-257 melanoma
BT-549 breast = system: BT-549 breast
NCI-H522 lung = system: NCI-H522 lung
OVCAR-5 ovarian = system: OVCAR-5 ovarian

With `c1cn[nH]c1` the TGI (SN12C renal) was over 10 µM, the TGI (HCC-2998 colon) was over 10 µM and the TGI (MDA-N) was over 10 µM. For the same molecule, the TGI (SF-268 CNS) was over 10 µM, the TGI (UACC-62 melanoma) was over 10 µM and the TGI (OVCAR-8 ovarian) was over 10 µM. It also gave a TGI (HCT-15 colon) of over 10 µM, a TGI (TK-10 renal) of over 10 µM and a TGI (NCI-H460 lung) of over 10 µM. For the same molecule, the TGI (T-47D breast) was over 10 µM, the TGI (UO-31 renal) was over 10 µM and the TGI (786-0 renal) was over 10 µM. The TGI (SF-295 CNS) was over 10 µM, the TGI (A498 renal) was over 10 µM and the TGI (MDA-MB-435) was over 10 µM. The TGI (ACHN renal) was over 10 µM, the TGI (SF-539 CNS) was over 10 µM and the TGI (CCRF-CEM leukemia) was over 10 µM. For the same molecule, the TGI (MCF7 breast) was over 10 µM, the TGI (HL-60(TB) leukemia) was over 10 µM and the TGI (SK-MEL-28 melanoma) was over 10 µM. The TGI (EKVX NSCLC) was over 10 µM, the TGI (U251 CNS) was over 10 µM and the TGI (NCI-H23 lung) was over 10 µM. For the same molecule, the TGI (COLO 205 colon) was over 10 µM, the TGI (A549 NSCLC) was over 10 µM and the TGI (SNB-75 CNS) was over 10 µM. The TGI (HOP-62 NSCLC) was over 10 µM, the TGI (MOLT-4 leukemia) was over 10 µM and the TGI (SR leukemia) was over 10 µM. It also gave a TGI (NCI-H226 lung) of over 10 µM, a TGI (RXF 393 renal) of over 10 µM and a TGI (SNB-19 CNS) of over 10 µM. It also gave a TGI (HOP-92 NSCLC) of over 10 µM, a TGI (SW-620 colon) of over 10 µM and a TGI (HCT-116 colon) of over 10 µM. The TGI (OVCAR-3 ovarian) was over 10 µM, the TGI (OVCAR-4 ovarian) was over 10 µM and the TGI (PC-3 prostate) was over 10 µM. For the same molecule, the TGI (SK-OV-3 ovarian) was over 10 µM, the TGI (K-562 leukemia) was over 10 µM and the TGI (KM12 colon) was over 10 µM. The TGI (IGROV1 ovarian) was over 10 µM, the TGI (NCI/ADR-RES ovarian) was over 10 µM and the TGI (HT29 colon) was over 10 µM. For the same molecule, the TGI (RPMI-8226 leukemia) was over 10 µM, the TGI (SK-MEL-2 melanoma) was over 10 µM and the TGI (HS 578T breast) was over 10 µM. The TGI (MALME-3M melanoma) was over 10 µM, the TGI (SK-MEL-5 melanoma) was over 10 µM and the TGI (LOX IMVI melanoma) was over 10 µM.

For `Cc1ccc(C2(c3ccc(C)c(O)c3C)CCN(C)CC2)c(C)c1O`, the TGI (SN12C renal) was over 100 µM, the TGI (MDA-N) was over 100 µM and the TGI (M14 melanoma) was over 100 µM. The TGI (SF-268 CNS) was over 100 µM, the TGI (UACC-62 melanoma) was over 100 µM and the TGI (OVCAR-8 ovarian) was over 100 µM. For the same molecule, the TGI (HCT-15 colon) was over 100 µM, the TGI (TK-10 renal) was 74.4 µM and the TGI (NCI-H460 lung) was over 100 µM. The TGI (T-47D breast) was over 100 µM, the TGI (UO-31 renal) was over 100 µM and the TGI (786-0 renal) was over 100 µM. It also gave a TGI (SF-295 CNS) of over 100 µM, a TGI (A498 renal) of over 100 µM and a TGI (MDA-MB-435) of over 100 µM. For the same molecule, the TGI (ACHN renal) was over 100 µM, the TGI (CCRF-CEM leukemia) was over 100 µM and the TGI (SK-MEL-28 melanoma) was over 100 µM. The TGI (EKVX NSCLC) was over 100 µM, the TGI (U251 CNS) was over 100 µM and the TGI (NCI-H23 lung) was over 100 µM. The TGI (MDA-MB-231 breast) was over 100 µM, the TGI (A549 NSCLC) was over 100 µM and the TGI (SNB-75 CNS) was over 100 µM. For the same molecule, the TGI (HOP-62 NSCLC) was over 100 µM, the TGI (MOLT-4 leukemia) was over 100 µM and the TGI (SR leukemia) was over 100 µM. The TGI (NCI-H226 lung) was over 100 µM, the TGI (RXF 393 renal) was over 100 µM and the TGI (CAKI-1 renal) was over 100 µM. It also gave a TGI (SNB-19 CNS) of over 100 µM, a TGI (HOP-92 NSCLC) of over 100 µM and a TGI (SW-620 colon) of over 100 µM. For the same molecule, the TGI (HCT-116 colon) was over 100 µM, the TGI (DU-145 prostate) was over 100 µM and the TGI (OVCAR-3 ovarian) was over 100 µM. It also gave a TGI (OVCAR-4 ovarian) of over 100 µM, a TGI (PC-3 prostate) of over 100 µM and a TGI (UACC-257 melanoma) of 35.3 µM. It also gave a TGI (K-562 leukemia) of over 100 µM, a TGI (BT-549 breast) of over 100 µM and a TGI (KM12 colon) of over 100 µM. The TGI (IGROV1 ovarian) was over 100 µM, the TGI (NCI/ADR-RES ovarian) was over 100 µM and the TGI (NCI-H522 lung) was over 100 µM. It also gave a TGI (HT29 colon) of over 100 µM, a TGI (RPMI-8226 leukemia) of over 100 µM and a TGI (SK-MEL-2 melanoma) of 75.9 µM. It also gave a TGI (HS 578T breast) of over 100 µM, a TGI (MALME-3M melanoma) of over 100 µM and a TGI (SK-MEL-5 melanoma) of over 100 µM. It also gave a TGI (OVCAR-5 ovarian) of over 100 µM and a TGI (LOX IMVI melanoma) of over 100 µM.
